The target of the assay is T1, human cloned 5-HT6 receptors (Homo sapiens, UniProt P50406).
T1 construct: expressed in transfected cells; host or cells: Hela cells
Briefly: 5-HT6 binding affinity, [3H]-LSD displacement in membranes of Hela cells. The following applies: for inhibition at 1 µM: test compound dose 1000 nM, read-out: % Inhibition; for inhibition at 0.1 µM: test compound dose 100 nM. As to the method:
The affinity of test compounds for the serotonin 5-HT6 receptor is evaluated in the following manner. Cultured Hela cells expressing human cloned 5-HT6 receptors are harvested and centrifuged at low speed (1,000×g) for 10.0 min to remove the culture media. The harvested cells are suspended in half volume of fresh physiological phosphate buffered saline solution and recentrifuged at the same speed. This operation is repeated. The collected cells are then homogenized in ten volumes of 50 mM Tris.HCl (pH 7.4) and 0.5 mM EDTA. The homogenate is centrifuged at 40,000×g for 30.0 min and the precipitate is collected. The obtained pellet is resuspended in 10 volumes of Tris.HCl buffer and recentrifuged at the same speed. The final pellet is suspended in a small volume of Tris.HCl buffer and the tissue protein content is determined in aliquots of 10-25 μl volumes. Bovine Serum Albumin is used as the standard in the protein determination according to the method described in Lowry et al., J. Biol. Chem., 193:265 (1951). The volume of the suspended cell membranes is adjusted to give a tissue protein concentration of 1.0 mg/ml of suspension. The prepared membrane suspension (10 times concentrated) is aliquoted in 1.0 ml volumes and stored at −70° C. until used in subsequent binding experiments.
The reaction is allowed to proceed in the dark for 120 min at room temperature, at which time, the bound ligand-receptor complex is filtered off on a 96 well unifilter with a Packard Filtermate® 196 Harvester. The bound complex caught on the filter disk is allowed to air dry and the radioactivity is measured in a Packard TopCount® equipped with six photomultiplier detectors, after the addition of 40.0 μl Microscint®-20 scintillant to each shallow well. The unifilter plate is heat-sealed and counted in a PackardTopCount® with a tritium efficiency of 31.0%.
Specific binding to the 5-HT6 receptor is defined as the total radioactivity bound less the amount bound in the presence of 10.0 μM unlabeled methiothepin. Binding in the presence of varying concentrations of test compound is expressed as a percentage of specific binding in the absence of test compound. The results are plotted as logit % bound versus log concentration of test compound. Nonlinear regression analysis of data points with a computer assisted program Prism® yields both the IC50 and the Ki values of test compounds with 95% confidence limits.
The amount of displacement by the test compound is given in percent (%) inhibition and is derived from the following equation: [formula] where B0 is the amount of CPM bound in the presence of the testing agent. NSB represents the CPM bound in the presence of a saturating concentration of a displacer and TB represents the total amount of CPM bound at zero (0) concentration of test compound.
Alternatively, a linear regression line of decline of data points is plotted, from which the IC50 value can be read off and the Ki value determined by solving the following equation: [formula] where L is the concentration of the radioactive ligand used and KD is the dissociation constant of the ligand for the receptor, both expressed in nM.

Data on 29 compounds can be found in US6906095B2, “Indolylalkylidenehydrazine-carboximidamide derivatives as 5-hydroxytryptamine-6 ligands” (Wyeth, priority 2002, dated 2005).

Usually inhibition stands for the change of the read-out against control, counted positive when it falls. Broadly, the Ki is a dissociation constant, usually derived from enzyme kinetics or from competition with a known ligand. A lower Ki goes with higher affinity.

T1 sequence (P50406 whole entry): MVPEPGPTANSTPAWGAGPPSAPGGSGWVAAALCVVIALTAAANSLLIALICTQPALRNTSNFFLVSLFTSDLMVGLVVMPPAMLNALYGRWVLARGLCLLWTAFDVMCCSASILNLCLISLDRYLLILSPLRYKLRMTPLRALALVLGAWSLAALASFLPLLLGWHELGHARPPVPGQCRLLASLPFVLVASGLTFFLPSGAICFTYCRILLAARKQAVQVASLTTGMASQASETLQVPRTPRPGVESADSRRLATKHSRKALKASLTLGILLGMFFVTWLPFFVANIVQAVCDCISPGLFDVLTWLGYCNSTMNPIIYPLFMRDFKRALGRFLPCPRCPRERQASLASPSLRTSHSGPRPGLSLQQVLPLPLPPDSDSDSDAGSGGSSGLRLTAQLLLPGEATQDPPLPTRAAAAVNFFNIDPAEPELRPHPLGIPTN

As for `CCCCC(=NNC(=N)N)c1cn(S(=O)(=O)c2ccc3ccccc3c2)c2ccccc12` [Example 65, 2-{1-[1-(2-naphthylsulfonyl)-1H-indol-3-yl]pentylidene}hydrazinecarboximidamide], the inhibition at 1 µM ([3H]-LSD 3.0 nM) was 62.3%.
As to `CC(=NNC(=N)N)c1cn(C(=O)c2ccccc2)c2ccccc12` [Example 130, 2-[1-(1-benzoyl-1H-indol-3-yl)ethylidene]hydrazinecarboximidamide], the inhibition at 0.1 µM ([3H]-LSD 3.0 nM) was 49.6%.
Compound `N=C(N)NN=C(Cc1ccccc1)c1cn(S(=O)(=O)c2ccccc2)c2ccccc12` [Example 6, 2-{2-phenyl-1-[1-(phenylsulfonyl)-1H-indol-3-yl]ethylidene}hydrazinecarboximidamide] returned an inhibition constant Ki of 11 nM. Also, for the setting “[3H]-LSD 3.0 nM”, the inhibition at 1 µM was determined as 97.8%.
With `CC(=NNC(=N)N)c1cn(S(=O)(=O)c2sc(Cl)cc2Br)c2ccccc12` [Example 29, 2-(1-{1-[(3-bromo-5-chlorothien-2-yl)sulfonyl]-1H-indol-3-yl}ethylidene)hydrazinecarboximidamide], the inhibition at 0.1 µM ([3H]-LSD 3.0 nM) is 60.3%.
The compound `N=C(N)NN=C(c1cn(S(=O)(=O)c2ccc3ccccc3c2)c2cc(F)ccc12)C1CC1` [Example 111, 2-{cyclopropyl[6-fluoro-1-(2-naphthylsulfonyl)-1H-indol-3-yl]methylidene}hydrazinecarboximidamide] displayed an inhibition at 0.1 µM ([3H]-LSD 3.0 nM) of 27.6%.
`CC(=NNC(=N)N)c1cn(S(C)(=O)=O)c2ccccc12` [Example 55, 2-{1-[1-(methylsulfonyl)-1H-indol-3-yl]ethylidene}hydrazinecarboximidamide] had an inhibition at 0.1 µM ([3H]-LSD 3.0 nM) of 68.2%.
In the case of `CCCCC(=NNC(=N)N)c1cn(S(=O)(=O)c2ccc3ccccc3c2)c2ccc(Cl)cc12` [Example 82, 2-{1-[5-chloro-1-(2-naphthylsulfonyl)-1H-indol-3-yl]pentylidene}hydrazinecarboximidamide], the inhibition at 1 µM ([3H]-LSD 3.0 nM) is 46.9%.
Compound `CC(=NNC(=N)N)c1cn(S(=O)(=O)c2ccc(Cl)s2)c2ccccc12` [Example 37, 2-(1-{1-[(5-chlorothien-2-yl)sulfonyl]-1H-indol-3-yl}ethylidene)hydrazinecarboximidamide] registered a Ki of 25 nM. In addition, for the setting “[3H]-LSD 3.0 nM”, testing at 0.1 µM gave an inhibition of 75.2%.
Under “[3H]-LSD 3.0 nM”, `CCCCS(=O)(=O)n1cc(C(C)=NNC(=N)N)c2ccccc21` [Example 58, 2-{1-[1-(butylsulfonyl)-1H-indol-3-yl]ethylidene}hydrazinecarboximidamide] gave an inhibition at 0.1 µM of 78.3%.
The compound `CC(=NNC(=N)N)c1cn(S(=O)(=O)c2ccccc2)c2ccccc12` [Example 9, 2-{1-[1-(phenylsulfonyl)-1H-indol-3-yl]ethylidene}hydrazinecarboximidamide] registered a Ki of 7 nM. For the same compound, the inhibition at 1 µM ([3H]-LSD 3.0 nM) turned out to be 99.5%.
In turn, `CCCCC(=NNC(=N)N)c1cn(S(=O)(=O)c2ccccc2)c2ccccc12` [Example 67, 2-{1-[1-(phenylsulfonyl)-1H-indol-3-yl]pentylidene}hydrazinecarboximidamide] yielded an inhibition at 0.1 µM ([3H]-LSD 3.0 nM) of 66.3%.
`CC(=NNC(=N)N)c1c(-c2ccccc2)n(S(=O)(=O)c2ccccc2)c2ccccc12` [Example 15, 2-{1-[2-phenyl-1-(phenylsulfonyl)-1H-indol-3-yl]ethylidene}hydrazinecarboximidamide] yielded an inhibition at 0.1 µM ([3H]-LSD 3.0 nM) of 67.1%.
On the same count and under the same terms, with `CC(=NNC(=N)N)c1cn(S(=O)(=O)c2ccc(S(C)(=O)=O)cc2)c2ccccc12` [Example 48, 2-[1-(1-{[4-(methylsulfonyl)phenyl]sulfonyl}-1H-indol-3-yl)ethylidene]hydrazinecarboximidamide] the figure was 43.9%.
`CCC(=NNC(=N)N)c1cn(S(=O)(=O)c2ccc(N)cc2)c2ccc(Cl)cc12` [Example 121, 2-(1-{1-[(4-aminophenyl)sulfonyl]-5-chloro-1H-indol-3-yl}propylidene)hydrazinecarboximidamide] gave a Ki of 9 nM.
As to `N=C(N)NN=C(c1c(-c2ccc(Cl)cc2)n(S(=O)(=O)c2ccc3ccccc3c2)c2ccccc12)C1CC1` [Example 94, 2-[[2-(4-chlorophenyl)-1-(2-naphthylsulfonyl)-1H-indol-3-yl](cyclopropyl)methylidene]hydrazinecarboximidamide], the inhibition at 1 µM ([3H]-LSD 3.0 nM) is 27.9%.
Turning to `COc1ccc(S(=O)(=O)n2cc(C(C)=NNC(=N)N)c3ccc(F)cc32)cc1` [Example 106, 2-(1-{6-fluoro-1-[(4-methoxyphenyl)sulfonyl]-1H-indol-3-yl}ethylidene)hydrazinecarboximidamide], the inhibition at 1 µM ([3H]-LSD 3.0 nM) came out at 64.4%.
Compound `CC(=NNC(=N)N)c1cn(S(=O)(=O)c2ccccc2)c2ccc(Cl)cc12` [Example 84, 2-{1-[5-chloro-1-(phenylsulfonyl)-1H-indol-3-yl]ethylidene}hydrazinecarboximidamide] displayed an inhibition at 0.1 µM ([3H]-LSD 3.0 nM) of 81.7%.
For the compound `CCCCC(=NNC(=N)N)c1cn(S(=O)(=O)c2ccc(OC)cc2)c2ccc(Cl)cc12` [Example 79, 2-(1-{5-chloro-1-[(4-methoxyphenyl)sulfonyl]-1H-indol-3-yl}pentylidene)hydrazinecarboximidamide], the inhibition at 1 µM ([3H]-LSD 3.0 nM) is 61%.
For the compound `Cc1ccc(S(=O)(=O)n2cc(C=NN(C)C3=NCCN3)c3ccccc32)cc1` [Example 4, 1-[(4-methylphenyl)sulfonyl]-1H-indole-3-carbaldehyde 4,5-dihydro-1H-imidazol-2-yl(methyl)hydrazone], where the note is “[3H]-LSD 3.0 nM”, the inhibition at 1 µM came to 71.9%.
Under “[3H]-LSD 3.0 nM”, `CS(=O)(=O)n1cc(C(=NNC(=N)N)C2CC2)c2cc(Cl)ccc21` [Example 74, 2-[[5-chloro-1-(methylsulfonyl)-1H-indol-3-yl](cyclopropyl)methylidene]hydrazinecarboximidamide] yielded an inhibition at 0.1 µM of 68.5%.
Consider `CCCCC(=NNC(=N)N)c1cn(S(=O)(=O)CCCC)c2cc(F)ccc12` [Example 104, 2-{1-[1-(butylsulfonyl)-6-fluoro-1H-indol-3-yl]pentylidene}hydrazinecarboximidamide], for which the inhibition at 1 µM ([3H]-LSD 3.0 nM) turned out to be 81.3%.
`CC(=NNC(=N)N)c1cn(S(=O)(=O)c2cc(Cl)sc2Cl)c2ccccc12` [Example 41, 2-(1-{1-[(2,5-dichlorothien-3-yl)sulfonyl]-1H-indol-3-yl}ethylidene)hydrazinecarboximidamide] returned an inhibition at 0.1 µM ([3H]-LSD 3.0 nM) of 55%.
Take `COc1ccc(S(=O)(=O)n2cc(C(C)=NNC(=N)N)c3cc(Cl)ccc32)cc1OC` [Example 87, 2-(1-{5-chloro-1-[(3,4-dimethoxyphenyl)sulfonyl]-1H-indol-3-yl}ethylidene)hydrazinecarboximidamide]: where the note is “[3H]-LSD 3.0 nM”, the inhibition at 1 µM was 88.9%.
`CC(=NNC(=N)N)c1cn(S(=O)(=O)c2ccccc2)c2ccc([N+](=O)[O-])cc12` [Example 18, 2-{1-[5-nitro-1-(phenylsulfonyl)-1H-indol-3-yl]ethylidene}hydrazinecarboximidamide] displayed an inhibition at 0.1 µM ([3H]-LSD 3.0 nM) of 77.9%.
For the setting “[3H]-LSD 3.0 nM”, `CC(=NNC(=N)N)c1cn(S(=O)(=O)c2cc([N+](=O)[O-])ccc2C)c2ccccc12` [Example 46, 2-(1-{1-[(2-methyl-5-nitrophenyl)sulfonyl]-1H-indol-3-yl}ethylidene)hydrazinecarboximidamide] displayed an inhibition at 0.1 µM of 41%.
Compound `CC(=NNC(=N)N)c1cn(S(=O)(=O)c2ccc(F)cc2)c2ccccc12` [Example 44, 2-(1-{1-[(4-fluorophenyl)sulfonyl]-1H-indol-3-yl}ethylidene)hydrazinecarboximidamide] yielded a Ki of 33 nM. The compound also gave an inhibition at 0.1 µM ([3H]-LSD 3.0 nM) of 75.5%.
With `N=C(N)NN=C(c1cn(S(=O)(=O)c2ccccc2)c2ccccc12)C1CC1` [Example 68, 2-{cyclopropyl[1-(phenylsulfonyl)-1H-indol-3-yl]methylidene}hydrazinecarboximidamide], 0.01 µM produced 68.3% inhibition (test compound dose 10 nM, [3H]-LSD 3.0 nM).
`CC(=NNC(=N)N)c1cn(S(=O)(=O)c2cc(Cl)ccc2Cl)c2ccccc12` [Example 40, 2-(1-{1-[(2,5-dichlorophenyl)sulfonyl]-1H-indol-3-yl}ethylidene)hydrazinecarboximidamide] yielded an inhibition at 0.1 µM ([3H]-LSD 3.0 nM) of 33.3%.
`N=C(N)NN=C(c1cn(S(=O)(=O)c2ccccc2)c2ccc(Cl)cc12)C1CC1` [Example 86, 2-[[5-chloro-1-(phenylsulfonyl)-1H-indol-3-yl](cyclopropyl)methylidene]hydrazinecarboximidamide] had an inhibition at 0.1 µM ([3H]-LSD 3.0 nM) of 78.1%.
